The record followed here is patent US6764829B2, “Nucleoside hydrolase and nucleoside phosphorylase detection kits, dipsticks and substrates” (Albert Einstein College of Medicine of Yeshiva University, priority 1996, dated 2004).

Like-named read-outs stand apart in the source and are kept apart here.

One data set addresses T1, IU-nucleoside hydrolase (Crithidia fasciculata, UniProt Q27546).
T1 sequence (Q27546 1-315): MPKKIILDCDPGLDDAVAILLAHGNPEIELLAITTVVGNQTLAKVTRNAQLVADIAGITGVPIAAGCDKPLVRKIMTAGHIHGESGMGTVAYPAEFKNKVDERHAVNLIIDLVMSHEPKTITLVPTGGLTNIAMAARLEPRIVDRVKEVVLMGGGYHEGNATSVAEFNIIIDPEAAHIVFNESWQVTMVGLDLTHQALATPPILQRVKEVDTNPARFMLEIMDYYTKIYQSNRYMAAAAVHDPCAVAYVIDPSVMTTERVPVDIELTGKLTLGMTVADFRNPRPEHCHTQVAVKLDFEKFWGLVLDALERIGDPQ
Description: Comparison of β-D-ribofuranoside substrates with IU-nucleoside hydrolase (Table 3). The format is biochemical. As to conditions: for Km: read-out: IU NH Km. The protocol: (§1) The enzymes used were highly purified samples from Crithidia fasciculata (IU-nucleoside hydrolase) and Trypanosoma brucei brucei (IAG-nucleoside hydrolase), available as stock solutions of approximately 20 mg protein/mL.
(§2) Each reaction was conducted in a quartz cuvette with a 1 cm path length, placed in the observation chamber of a UV spectrophotometer, and in a total reaction volume of 600 μL. The temperature was adjusted by use of a circulating water bath, set so that the cuvette temperature equilibrated to 30° C. in about 5 minutes.
(§3) The β-D-ribofuranoside substrates were dissolved in aqueous buffer: 50 mM CHES for reactions at pH 10, 50 mM HEPES for reactions at pH 8. […] For the remaining reactions catalysed by IAG hydrolase, a single substrate concentration of between 100 and 300 μM was used.
(§4) The absorbance of each reaction mixture was monitored at or near the absorption maximum for the phenolic aglycon (as shown in Table 3). Monitoring began 5-10 minutes before the enzyme was added to determine if the substrate was stable under the reaction conditions.
(§5) Data were fitted to the Michaelis-Menton equation using kaleidagraph, and the resulting kinetic parameters along with other relevant data are summarized in Table 3.

In a further data set the target is T2, IAG-nucleoside hydrolase (Trypanosoma brucei, UniProt Q57ZL6).
T2 sequence (Q57ZL6 1-327): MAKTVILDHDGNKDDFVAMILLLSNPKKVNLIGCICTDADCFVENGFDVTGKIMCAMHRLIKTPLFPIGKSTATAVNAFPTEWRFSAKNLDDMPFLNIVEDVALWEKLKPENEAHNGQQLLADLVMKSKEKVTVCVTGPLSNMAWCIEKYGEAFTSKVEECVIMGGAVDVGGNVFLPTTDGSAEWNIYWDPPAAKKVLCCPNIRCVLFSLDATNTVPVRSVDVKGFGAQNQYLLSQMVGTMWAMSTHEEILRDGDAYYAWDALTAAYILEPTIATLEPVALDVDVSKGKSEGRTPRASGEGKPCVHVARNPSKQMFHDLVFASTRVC
Description: Comparison of β-D-ribofuranoside substrates with IAG-nucleoside hydrolase (Table 3). As to conditions: for IAG NH rate: at 200 μM substrate. The format is biochemical. The protocol: as §1, §2, §3, §4, §5

In the next data set the test system is T. vaginalis. As to the kind of experiment: Hydrolysis of substrates by T. vaginalis extract. As to conditions: Triton X-100 extract; determined as in Example 24. The format is biochemical. The protocol: T. vaginalis was grown for 2 days in TYM medium, harvested, and washed. […] The ability of the extract to hydrolyse substrates was determined as in Example 24. For 4-nitrophenyl β-D-ribofuranoside, the activity was 165 nmoles.min^−1 per 10^8 cells, corresponding to an activity for the enzyme of 9 nmoles.min^−1.(mg protein)^−1. For 4-pyridyl β-D-ribofuranoside, the activity was 74 nmoles.min^−1 per […] corresponding to an activity for the enzyme of 4 nmoles.min^−1.(mg protein)^−1.

Data set [1] relates to Giardia intestinalis (Portland 1 strain). As to the kind of experiment: Hydrolysis of substrates by Giardia intestinalis supernatants. The format is biochemical. As to conditions: 0.24 mM substrate, 50 mM HEPES pH 8. On the procedure: Giardia intestinalis (Portland 1 strain) was grown for 2 days in TYI-33 medium supplemented with 5 mM arginine, harvested and washed. A suspension containing 2.91×10^8 cells of Giardia intestinalis in 1 mL of aqueous HEPES buffer (40 mM. pH 7) was mixed with 1 mL of aqueous HEPES buffer (40 mM, pH 7) containing 0.1 mM protease inhibitor E-64 and sonicated (Branson sonicator, duty cycle 40, output 2.5), for 2-3 min in ice. The suspension was then centrifuged in a Beckman microfuge for 10 mins at 4° C., and the supernatant decanted.
A second suspension of 2.91×10^8 cells of Giardia intestinalis in 1 mL of aqueous HEPES buffer (40 mM, pH 7) was mixed with 1 mL of 0.5% aqueous Triton X-100, left at 4° C. overnight, and the supernatant was decanted.
Aliquots (between 2 and 100 μL) of each of these supernatants were made up to a volume of 1 mL of water containing 50 mM HEPES buffer at pH 8, 0.24 mM 4-nitrophenyl β-D-ribofuranoside or 4-pyridyl β-D-ribofuranoside. The release of the aglycon was monitored by absorption spectrometry at 400 nm or 253 nm, respectively.
Protein was determined by Lowry method (ie Folin reaction).

The next data set addresses AMP nucleosidase (Escherichia coli, UniProt P0AE12). Description: Kinetic parameters with nitrophenylriboside 5-phosphate and purine substrate (Table 1). The format is biochemical, E coli. An excerpt:
(§6) In this Example kinetic parameters for different enzymes were compared using nitrophenylriboside or a purine substrate. […] The E. coli and bovine spleen enzymes tested were ineffective in hydrolysing the substrate. The striking ability of one of the protozoan parasite enzymes to hydrolyse the substrate provides the basis for an assay for the protozoan parasites (see Example 22).

Substrate in data set [2]: O=[N+]([O-])c1ccc(O[C@@H]2O[C@H](CO)[C@@H](O)[C@H]2O)cc1
As to the kind of experiment: Kinetic parameters (phosphorolysis) with nitrophenylriboside and purine substrate (Table 1). The format is biochemical, bovine. As to conditions: other: nitrophenylriboside as substrate, pH 8.0 in 50 mM HEPES, 30° C., 3 mM phosphate.
Excerpt: as §6

Setting [3] is: nitrophenylriboside 5-phosphate as substrate, pH 8.0 in 50 mM HEPES, 30° C., MgATP 100 μM.

Chain of AMP nucleosidase (P0AE12 whole entry): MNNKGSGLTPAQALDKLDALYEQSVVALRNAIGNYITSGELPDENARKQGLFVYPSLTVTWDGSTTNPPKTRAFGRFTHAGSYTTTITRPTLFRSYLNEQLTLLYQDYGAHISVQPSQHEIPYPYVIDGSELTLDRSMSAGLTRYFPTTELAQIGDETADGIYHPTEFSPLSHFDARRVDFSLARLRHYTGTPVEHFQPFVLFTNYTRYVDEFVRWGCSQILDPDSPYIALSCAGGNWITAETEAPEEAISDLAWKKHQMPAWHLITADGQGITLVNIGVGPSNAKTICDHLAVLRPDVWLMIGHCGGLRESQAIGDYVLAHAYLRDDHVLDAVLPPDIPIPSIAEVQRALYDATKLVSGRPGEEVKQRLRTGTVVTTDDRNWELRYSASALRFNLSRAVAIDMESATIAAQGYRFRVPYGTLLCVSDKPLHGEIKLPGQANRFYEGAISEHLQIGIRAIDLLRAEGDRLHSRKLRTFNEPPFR

In turn, `OC[C@H]1O[C@@H](Oc2cccc3ccccc23)[C@H](O)[C@@H]1O` [Example 2, α-naphthyl β-D-ribofuranoside] registered an inhibition constant Ki on IU-nucleoside hydrolase of 7.3 µM. The “IU NH kcat” value at IU-nucleoside hydrolase (At pH 10, at 250 μM) was “.009 s⁻¹”. The “IAG NH rate” value on IAG-nucleoside hydrolase (pH 10.0) was less than 0.05 min⁻¹.

`O=C(Nc1cccc(O[C@@H]2O[C@H](CO)[C@@H](O)[C@H]2O)c1)C(F)(F)F` [Example 3, 3-trifluoroacetamidophenyl β-D-ribofuranoside] displayed an inhibition constant (Ki) on IU-nucleoside hydrolase of 27.7 µM. This lies in the double-digit micromolar range.

In turn, `Nc1cccc(O[C@@H]2O[C@H](CO)[C@@H](O)[C@H]2O)c1` [Example 4, 3-aminophenyl β-D-ribofuranoside] showed an inhibition constant (Ki) on IU-nucleoside hydrolase of 72 µM. Also, on IU-nucleoside hydrolase (At pH 10, at 1240 μM), the “IU NH kcat” value is 0.7 s⁻¹. The “IAG NH rate” value on IAG-nucleoside hydrolase (pH 10.0) was less than 0.02 min⁻¹.

On to `O=C1CCCc2c(O[C@@H]3O[C@H](CO)[C@@H](O)[C@H]3O)cccc21` [Example 5, 1-tetralone-5-yl β-D-ribofuranoside], for which the “IU NH kcat” value on IU-nucleoside hydrolase (At pH 10, at 200 μM) was 0.5 s⁻¹. In addition, the “IAG NH rate” value at IAG-nucleoside hydrolase (pH 8.0) and on IAG-nucleoside hydrolase (pH 10.0) was less than 0.01 min⁻¹ in each case.

For `Nc1ccc(O[C@@H]2O[C@H](CO)[C@@H](O)[C@H]2O)cc1` [Example 6, p-aminophenyl β-D-ribofuranoside], on IU-nucleoside hydrolase (At pH 10, 30° C.), the “IU NH kcat” value is less than 0.01 s⁻¹.

Regarding `O=C1OC(c2ccc(O)cc2)(c2ccc(O[C@@H]3O[C@H](CO)[C@@H](O)[C@H]3O)cc2)c2ccccc21` (stereo partly drawn) [Example 7, 3-(4-hydroxyphenyl)-1(3H)-isobenzofuranone-3-(phen-4-yl) β-D-ribofuranoside], the “IU NH kcat” value at IU-nucleoside hydrolase (At pH 10, at 200 μM) is recorded as 10 at sec^−1. Also, the “IAG NH rate” value at IAG-nucleoside hydrolase (pH 8.0) and on IAG-nucleoside hydrolase (pH 10.0) was less than 0.01 min⁻¹ in each case.

For `O=[N+]([O-])c1ccccc1O[C@@H]1O[C@H](CO)[C@@H](O)[C@H]1O` [Example 9, 2-nitrophenyl β-D-ribofuranoside], the “substrate quality in words” value on IU-nucleoside hydrolase is on record as “good substrates”. For the same molecule, at IAG-nucleoside hydrolase (pH 10.0), the “IAG NH rate” value was determined as 0.15 min⁻¹.

On to `Cc1cc(=O)oc2cc(O[C@@H]3O[C@H](CO)[C@@H](O)[C@H]3O)ccc12` [Example 10, 4-methylcoumarin-7-yl β-D-ribofuranoside], for which, on IU-nucleoside hydrolase, the “substrate quality in words” value is listed as “good substrates”. Besides, the “IAG NH rate” value at IAG-nucleoside hydrolase (pH 10.0) is 0.003 min⁻¹.

`OC[C@H]1O[C@@H](Oc2cccnc2)[C@H](O)[C@@H]1O` [Example 11, 3-pyridyl β-D-ribofuranoside]: the “IAG NH rate” value on IAG-nucleoside hydrolase (pH 10.0) was 0.01 min⁻¹.

As for `OC[C@H]1O[C@@H](Oc2ccncc2)[C@H](O)[C@@H]1O` [Example 12, 4-pyridyl β-D-ribofuranoside], the “substrate quality in words” value on IU-nucleoside hydrolase is reported as “good substrates”; at IU-nucleoside hydrolase (listed as 4-pyridyl riboside), “lower activity”; on IAG-nucleoside hydrolase, “good substrates”; on IAG-nucleoside hydrolase (listed as 4-pyridyl riboside) it was “substantially greater activity”. The “activity for the enzyme” value in the data set on T. vaginalis is listed as 4 nmoles.min^−1.(mg protein)^−1; in data set [1] (protein by Lowry method) it was 31 nmoles.min^−1.(mg protein)^−1. The activity per cells is given as 74 nmoles.min^−1 per 10^−8 cells in the data set with T. vaginalis and 210 nmoles.min^−1 per 10^8 cells in data set [1].

Regarding `OC[C@H]1O[C@@H](Oc2cccc3ncccc23)[C@H](O)[C@@H]1O` [Example 14, 5-quinolyl β-D-ribofuranoside], the “IAG NH rate” value on IAG-nucleoside hydrolase (pH 8.0) is 0.16 min⁻¹; at IAG-nucleoside hydrolase (pH 10.0) it was less than 0.01 min⁻¹.

In the case of `NC(=O)c1ccc(O[C@@H]2O[C@H](CO)[C@@H](O)[C@H]2O)nc1` [Example 19, 3-carboxamido-6-pyridyl β-D-ribofuranoside], the “substrate quality in words” value at IU-nucleoside hydrolase and on IAG-nucleoside hydrolase was “good substrates” throughout. Moreover, the “IU NH kcat” value at IU-nucleoside hydrolase (At pH 10, 30° C.) stood at 141 s⁻¹. Moreover, the Michaelis-Menten constant (Km) on IU-nucleoside hydrolase (At pH 10, 30° C.) is 369 µM. Further, the “IAG NH rate” value at IAG-nucleoside hydrolase (pH 8.0) is greater than 100 min⁻¹; at IAG-nucleoside hydrolase (pH 10.0), 24 min⁻¹.

Take `O=Cc1ccc(O[C@@H]2O[C@H](CO)[C@@H](O)[C@H]2O)cc1` [Example 20, 4-formylphenyl β-D-ribofuranoside]: the “IAG NH rate” value on IAG-nucleoside hydrolase (pH 10.0) was 0.01 min⁻¹.

In the case of nitrophenylriboside 5-phosphate, the kcat/Km ratio on AMP nucleosidase (kcat/Km for the nitrophenyl substrate to that for AMP) was 3 × 10^−7. Moreover, on AMP nucleosidase (setting [3]), the Michaelis constant (Km) worked out at 6250 µM and the kcat was 0.0004 s⁻¹.

Consider “β-D-ribofuranoside of Luminol [Example 15]”, for which, at IU-nucleoside hydrolase (At pH 10, 30° C.), the “IU NH kcat” value amounted to 163 s⁻¹ and the Km was 133 µM. The “IAG NH rate” value on IAG-nucleoside hydrolase (pH 8.0) was less than 0.01 min⁻¹. Moreover, the “IAG NH rate” value on IAG-nucleoside hydrolase (pH 10.0) was less than 0.03 min⁻¹.

B1: Purine nucleoside phosphorylase (Bos taurus) (protein)
chain: MANGYTYEDYQDTAKWLLSHTEQRPQVAVICGSGLGGLVNKLTQAQTFDYSEIPNFPESTVPGHAGRLVFGILNGRACVMMQGRFHMYEGYPFWKVTFPVRVFRLLGVETLVVTNAAGGLNPNFEVGDIMLIRDHINLPGFSGENPLRGPNEERFGVRFPAMSDAYDRDMRQKAHSTWKQMGEQRELQEGTYVMLGGPNFETVAECRLLRNLGADAVGMSTVPEVIVARHCGLRVFGFSLITNKVIMDYESQGKANHEEVLEAGKQAAQKLEQFVSLLMASIPVSGHTG
notes: The E. coli and bovine spleen enzymes tested; from tissue; host or cells: bovine spleen
On to B1, for which, in data set [2], the Km was 224 µM, the turnover number (kcat) is 0.0002 s⁻¹ and the specificity constant (kcat/Km) was found to be 0.89 M⁻¹ s⁻¹.

A word on the Ki: it is a measure of affinity in units of concentration, obtained from inhibition or displacement. A lower Ki goes with a stronger hold on the target. As a reminder, the Km is the substrate concentration at which the rate is half of its maximum. What is called kcat is the number of substrate molecules converted per active site and unit of time at saturation. For orientation: kcat/Km means the second-order rate constant that governs catalysis at low substrate concentration.
